Source: patent US20160213742A1, “COMPOSITIONS AND METHODS FOR THE TREATMENT OF FUNGAL INFECTIONS” (priority 2013, published 2016)
Values after ≈ are worked out from the molar mass of the structure shown.

Assays:
Format in all cases: cell-based
C. krusei ATCC 14243 = test: microbe, parasite or virus in culture
Protocol: (§1) The test organisms consisted of strains from the Micromyx collection. Reference isolates were originally received from the American Type Culture Collection (ATCC; Manassas, Va.). Organisms received at Micromyx were initially streaked for isolation on Sabouraud dextrose or potato dextrose agar. Colonies were picked by swab from the medium and resuspended in the appropriate broth containing cryoprotectant. The suspensions were aliquoted into cryogenic vials and maintained at −80° C. Prior to testing, Candida isolates were streaked from the frozen vials on Sabouraud dextrose agar. The yeast isolates were incubated at overnight at 35° C. before use. The fungal isolates were incubated at least 7 days on Sabouraud dextrose agar slants at 35° C. before harvesting.
(§2) Isolates were tested in RPMI medium (Catalog No. SH30011.04; Lot No. AWA92121B; HyClone Labs, Logan, Utah) which was prepared according to CLSI guidelines. The pH of the medium was adjusted to 7.0 with 1 N NaOH. The medium was sterile filtered using a 0.2 μm PES filter and stored at 4° C. until used.
(§3) The MIC assay method employed automated liquid handlers to conduct serial dilutions and liquid transfers. Automated liquid handlers included the Multidrop 384 (Labsystems, Helsinki, Finland), Biomek 2000 and Biomek FX (Beckman Coulter, Fullerton Calif.). The wells in columns 2-12 in standard 96-well microdilution plates (Costar 3795) were filled with 150 μl of the correct diluent (50% DMSO for investigational compounds, 100% DMSO for comparator compounds). These would become the mother plates' from which ‘daughter’ or test plates would be prepared. Stocks were diluted to 40× the desired top concentration in the test plates in the indicated solvent, and 300 μL of the 40× stock was dispensed into the appropriate well in Column 1 of the mother plates. The Biomek 2000 was used to make serial serial 2-fold dilutions through Column 11 in the “mother plate”. The wells of Column 12 contained no drug and served as the organism growth control wells.
(§4) The daughter plates were loaded with 185 μL per well of RPMI described above using the Multidrop 384. The daughter plates were prepared using the Biomek FX which transferred 5 μL of drug solution from each well of a mother plate to the corresponding well of the daughter plate in a single step.
(§5) A standardized inoculum of each organism was prepared. For Candida, colonies were picked from the streak plate and a suspension was prepared in RPMI medium equal to a 0.5 McFarland standard, then diluted 1:100 in RPMI and transferred to compartments of sterile reservoirs divided by length (Beckman Coulter). For the Aspergillus isolates, previously prepared and quantitated suspensions were used to make dilutions in RPMI to reach 20× the final concentration. These dilutions were also transferred to compartments of sterile reservoirs divided by length (Beckman Coulter). The final concentration of the Aspergillus isolates was approximately 0.2-2.5×10^4 CFU/mL.
(§6) The Biomek 2000 was used to inoculate the plates. Daughter plates were placed on the Biomek 2000 work surface reversed so that inoculation took place from low to high drug concentration. The Biomek 2000 delivered 10 μL of standardized inoculum into each well. Thus, the wells of the daughter plates ultimately contained 185 μL of RPMI, 5 μL of drug solution, and 10 μL of inoculum. The final concentration of DMSO in the test well was 2.5% for the evaluated comparators and 1.25% for the investigational agents.
(§7) Plates were stacked 3 high, covered with a lid on the top plate, placed into plastic bags, and incubated at 35° C. for approximately 24-48 hr prior to reading. Plates were read when inoculum was confluent in growth wells. Plates were viewed from the bottom using a plate viewer. […] MICs were read where visible growth of the organism was inhibited. MECs were read where the growth shifted to a small, rounded, compact hyphal form as compared to the hyphal growth seen in the growth control well.

[1] = system: C. parapsilosis ATCC 22019; test: microbe, parasite or virus in culture
Protocol: as §1, §2, §3, §4, §5, §6, §7

C. glabrata ATCC 90030 = test: microbe, parasite or virus in culture
Protocol: as §1, §2, §3, §4, §5, §6, §7

C. albicans ATCC 90028 = test: microbe, parasite or virus in culture
Protocol: as §1, §2, §3, §4, §5, §6, §7

A. fumigatus ATCC 13073 = test: MEC assay (Example 31); conditions: RPMI pH 7.0, 35° C., 24-48 hr
Protocol: as §1, §2, §3, §4, §5, §6, §7

A. fumigatus MX 5944 = test: MEC assay (Example 31); conditions: RPMI pH 7.0, 35° C., 24-48 hr
Protocol: as §1, §2, §3, §4, §5, §6, §7

A. fumigatus MYA-3626 = test: MEC assay (Example 31); conditions: RPMI pH 7.0, 35° C., 24-48 hr
Protocol: as §1, §2, §3, §4, §5, §6, §7

A. flavus MX 5948 = test: MEC assay (Example 31); conditions: RPMI pH 7.0, 35° C., 24-48 hr
Protocol: as §1, §2, §3, §4, §5, §6, §7

A. fumigatus MYA-4609 = test: MEC assay (Example 31); conditions: RPMI pH 7.0, 35° C., 24-48 hr
Protocol: as §1, §2, §3, §4, §5, §6, §7

| SMILES | MIC (C. krusei ATCC 14243; ATCC 14243, pH 7) [mg/L] | MIC ([1]; ATCC 22019, pH 7) [mg/L] | MIC (C. glabrata ATCC 90030; ATCC 90030, pH 7) [mg/L] | MIC (C. albicans ATCC 90028; ATCC 90028, pH 7) [mg/L] | MEC (A. fumigatus ATCC 13073) | MEC (A. fumigatus MX 5944) [µg/mL] | MEC (A. fumigatus MYA-3626) [µg/mL] | MEC (A. flavus MX 5948) | MEC (A. fumigatus MYA-4609) [µg/mL] | MIC (C. krusei ATCC 14243; C. krusei ATCC 14243, RPMI pH 7.0, 35° C., 24-48 hr) [mg/L] | MIC ([1]; C. parapsilosis ATCC 22019, RPMI pH 7.0, 35° C., 24-48 hr) [mg/L] | MIC (C. glabrata ATCC 90030; C. glabrata ATCC 90030, RPMI pH 7.0, 35° C., 24-48 hr) [mg/L] | MIC (C. albicans ATCC 90028; C. albicans ATCC 90028, RPMI pH 7.0, 35° C., 24-48 hr) [mg/L] |
| --- | --- | --- | --- | --- | --- | --- | --- | --- | --- | --- | --- | --- | --- |
| CC[C@H](C)C[C@H](C)CCCCCCCCC(=O)N[C@H]1C[C@@H](O)[C@@H](NCCN)NC(=O)[C@@H]2[C@@H](O)CCN2C(=O)[C@H]([C@H](O)CCNC(=O)CCC(=O)NCCOCCOCCNC(=O)[C@H](Cc2ccccc2)NC(=O)[C@H](CC(C)C)NC(=O)[C@H](CCSC)NC=O)NC(=O)[C@H]([C@H](O)[C@@H](O)c2ccc(O)cc2)NC(=O)[C@@H]2C[C@@H](O)CN2C(=O)[C@H]([C@@H](C)O)NC1=O [Compound 16] | >32 | >32 | 32 (≈ 18.4 µM) | 2 (≈ 1.15 µM) |  |  |  |  |  |  |  |  |  |
| CC[C@H](C)C[C@H](C)CCCCCCCCC(=O)N[C@H]1C[C@@H](O)[C@@H](NCCNC(=O)C(Cc2ccccc2)NC(=O)C(CC(C)C)NC(=O)C(CCSC)NC(=O)Nc2ccc(Cl)cc2)NC(=O)[C@@H]2[C@@H](O)CCN2C(=O)[C@H]([C@H](O)CCN)NC(=O)[C@H]([C@H](O)[C@@H](O)c2ccc(O)cc2)NC(=O)[C@@H]2C[C@@H](O)CN2C(=O)[C@H]([C@@H](C)O)NC1=O (stereo partly drawn) [Compound 13a] |  |  |  |  |  |  |  |  |  | 16 (≈ 9.77 µM) | 32 (≈ 19.5 µM) | 8 (≈ 4.88 µM) | 2 (≈ 1.22 µM) |

The next lines start with results.

| MIC (C. krusei ATCC 14243; ATCC 14243, pH 7) [mg/L] | MIC ([1]; ATCC 22019, pH 7) [mg/L] | MIC (C. glabrata ATCC 90030; ATCC 90030, pH 7) [mg/L] | MIC (C. albicans ATCC 90028; ATCC 90028, pH 7) [mg/L] | SMILES | MEC (A. fumigatus ATCC 13073) | MEC (A. fumigatus MX 5944) [µg/mL] | MEC (A. fumigatus MYA-3626) [µg/mL] | MEC (A. flavus MX 5948) | MEC (A. fumigatus MYA-4609) [µg/mL] | MIC (C. krusei ATCC 14243; C. krusei ATCC 14243, RPMI pH 7.0, 35° C., 24-48 hr) [mg/L] | MIC ([1]; C. parapsilosis ATCC 22019, RPMI pH 7.0, 35° C., 24-48 hr) [mg/L] | MIC (C. glabrata ATCC 90030; C. glabrata ATCC 90030, RPMI pH 7.0, 35° C., 24-48 hr) [mg/L] | MIC (C. albicans ATCC 90028; C. albicans ATCC 90028, RPMI pH 7.0, 35° C., 24-48 hr) [mg/L] |
| --- | --- | --- | --- | --- | --- | --- | --- | --- | --- | --- | --- | --- | --- |
| 8 to 16 | 8 to 16 | 4 to 8 | 1 to 2 | CC[C@H](C)C[C@H](C)CCCCCCCCC(=O)N[C@H]1C[C@@H](O)[C@@H](OCCNC(=O)[C@H](Cc2ccccc2)NC(=O)[C@H](CC(C)C)NC(=O)[C@H](CCSC)NC=O)NC(=O)[C@@H]2[C@@H](O)CCN2C(=O)[C@H]([C@H](O)CCN)NC(=O)[C@H]([C@H](O)[C@@H](O)c2ccc(O)cc2)NC(=O)[C@@H]2C[C@@H](O)CN2C(=O)[C@H]([C@@H](C)O)NC1=O [Compound 12] | ≦0.03-0.12 μg/mL | 0.12 to 0.25 | 0.06 to 0.25 | ≦0.03-0.12 μg/mL | 0.06 to 0.12 |  |  |  |  |
| 8 (≈ 4.83 µM) | >16 | 4 (≈ 2.42 µM) | 2 (≈ 1.21 µM) | CC[C@H](C)C[C@H](C)CCCCCCCCC(=O)N[C@H]1C[C@@H](O)[C@@H](NCCNC(=O)CCNC(=O)[C@H](Cc2ccccc2)NC(=O)[C@H](CC(C)C)NC(=O)[C@H](CCSC)NC(=O)OCC(C)C)NC(=O)[C@@H]2[C@@H](O)CCN2C(=O)[C@H]([C@H](O)CCN)NC(=O)[C@H]([C@H](O)[C@@H](O)c2ccc(O)cc2)NC(=O)[C@@H]2C[C@@H](O)CN2C(=O)[C@H]([C@@H](C)O)NC1=O [Compound 6] |  |  |  |  |  |  |  |  |  |
| 8 (≈ 5.01 µM) | 32 (≈ 20 µM) | 4 (≈ 2.5 µM) | 2 (≈ 1.25 µM) | CC[C@H](C)C[C@H](C)CCCCCCCCC(=O)N[C@H]1C[C@@H](O)[C@@H](NCCNC(=O)CCNC(=O)[C@H](Cc2ccccc2)NC(=O)[C@H](CC(C)C)NC(=O)[C@H](CCSC)NC(C)=O)NC(=O)[C@@H]2[C@@H](O)CCN2C(=O)[C@H]([C@H](O)CCN)NC(=O)[C@H]([C@H](O)[C@@H](O)c2ccc(O)cc2)NC(=O)[C@@H]2C[C@@H](O)CN2C(=O)[C@H]([C@@H](C)O)NC1=O [Compound 8] | 1 µg/mL | 1 | 1 | 1 µg/mL | 1 |  |  |  |  |
